Data set [1] in a line: Cmax of other small molecule drugs in plasma, preparation versus original drug solution (Experimental Example 7). Conditions: male SD rats, subcutaneous; for Cmax: Sprague-Dawley (SD), rat, sc; for Phospholipid Span sustained release preparation Cmax: drug in preparation made by prescription and method of Example 1. The format is in vivo. On the procedure:
In vivo experiments in animals were used to investigate the effects of other small molecule drugs on inhibiting burst release. […] The obtained phospholipid Span sustained release preparation and original drug solution of the other small molecule drugs (each drug was formulated with water, ethanol or DMSO for injection, depending on the specific solubility) were injected subcutaneously into male SD rats, whose blood was taken at regular intervals. The C. of the small molecule drugs in plasma was determined by high-performance liquid chromatography-mass spectrometry (LC-MS/MS), thereby investigating the effect on inhibiting burst release.

Data set [2] is described as follows: Blood concentration of 2,4-dinitrophenol in rats after subcutaneous dosing, surfactant comparison (Experimental Example 1). Conditions: Sprague-Dawley (SD), rat, in vivo, sc, 12.5 mg/kg 2,4-dinitrophenol, LC-MS/MS, surfactant 3.5 g varied. The method, then: The following test was carried out in accordance with the preparation method of Example 1, except that the Span in the prescription of Example 1 was replaced with glyceryl dioleate (Test Example 1), Tween (Test Example 2) and sucrose acetate isobutyrate (Test Example 3). At the same time, the original drug solution group was designed (Test Example 4, 50 mg of the drug was dissolved in 10 mL of phosphate buffer (pH=7.6), and a solution of the same concentration as in Example 1 was prepared).
200-220 g of SD rats were randomly divided into five groups, 6 rats in each group, and were administered subcutaneously with 12.5 mg/kg dosage of 2,4-dinitrophenol (Example 1, Test Example 1, Test Example 2, Test Example 3 and Test Example 4). At the scheduled time point, blood was taken from the rat eye and placed in a heparin sodium anticoagulated test tube. After the sample was processed, the blood concentration was measured by LC-MS/MS.

A short description of data set [3]: In vivo pharmacokinetics of 2,4-dinitrophenol preparations, subcutaneous (Experimental Example 4). More on the design: species or system male SD rats. The method, then: The product of Example 1 was injected subcutaneously into male SD rats, whose blood was taken at regular intervals. The content of 2,4-dinitrophenol in plasma was determined by high-performance liquid chromatography-mass spectrometry (LC-MS/MS), thereby investigating the sustained release effect thereof.
200-220 g of SD rats were randomly divided into three groups, solution group (Test Example 4 in Experimental Example 1), phospholipid Span gel group (Example 1), and high-concentration phospholipid gel group (prepared according to patent CN102526753A). There were 6 rats in each group and they were injected subcutaneously at the dosage of 12.5 mg/kg. At the scheduled time point, blood was taken from the rat eye and placed in a heparin sodium anticoagulated test tube. After the sample was processed, the blood concentration was measured by LC-MS/MS injection.
The fomulation of the high-concentration phospholipid gel sustained release preparation (patent CN102526753A) is as follows: […]

A short description of data set [4]: In vivo pharmacokinetics of dabigatran etexilate preparations, subcutaneous (Experimental Example 5). Conditions: male, Sprague-Dawley (SD), rat, plasma, sc, SD rats, solution 11.4 mg/kg, gels 80 mg/kg. The method, then:
At the scheduled time point, blood was taken from the rat eye and placed in a heparin sodium anticoagulated test tube. After the sample was processed, the blood concentration was measured by LC-MS/MS.

[5] abbreviates: drug in preparation made by prescription and method of Example 1, read-out: Phospholipid Span sustained release preparation Cmax.
The mark [6] stands for this setting: original drug solution in water, ethanol or DMSO for injection.
Where [7] appears, read: in vivo, drug in preparation made by prescription and method of Example 1, read-out: Phospholipid Span sustained release preparation Cmax.

Each structure is given as a SMILES string. Structures can show the parent of a compound that is named as a salt.

We go through 12 molecules from patent publication US20200069583A1, “IN SITU PHASE CHANGE GEL SUSTAINED-RELEASE SYSTEM FOR SMALL MOLECULE DRUG AND PREPARATION METHOD THEREOF” (SICHUAN UNIVERSITY, priority 2017, published 2020).

As to `CC(=O)Oc1ccccc1C(=O)O` [Aspirin], the Cmax in data set [1] (setting [5]) came out at 14600 ± 3120 ng/mL. With `C/C=C1\[C@H]2C=C(C)C[C@]1(N)c1ccc(=O)[nH]c1C2` [Huperzine A], the “Phospholipid Span sustained release preparation Cmax” value in data set [1] came out at 1330 ± 220 ng/mL. Moreover, the “Original drug Cmax” value in data set [1] (setting [6]) worked out at 13870 ± 2860 ng/mL. Consider `NS(=O)(=O)c1cc2c(cc1C(F)(F)F)NCNS2(=O)=O` [Hydroflumethiazido], for which the “Phospholipid Span sustained release preparation Cmax” value in data set [1] is 870 ± 520 ng/mL. Further, the “Original drug Cmax” value in data set [1] (setting [6]) worked out at 5780 ± 2060 ng/mL. For `O=[N+]([O-])c1ccc(O)c([N+](=O)[O-])c1` [Test Example4, 2,4-dinitrophenol], the Cmax in data set [2] is 54500 ng/mL; in data set [3] (male, Sprague-Dawley (SD), rat, in vivo, sc, 12.5 mg/kg, rats, subcutaneous, same dose, 2,4-dinitrophenol) it was roughly 54500 ng/mL. In data set [3] (rats, same dose, original drug group), the “Duration of drug release” value was found to be 24 h. For the molecule `Cn1c(=O)c2[nH]cnc2n(C)c1=O` [theophylline], the Cmax in data set [1] (setting [7]) amounted to 1540 ± 320 ng/mL. For the molecule `COc1cccc2c1C(=O)c1c(O)c3c(c(O)c1C2=O)C[C@@](O)(C(=O)CO)C[C@@H]3O[C@H]1C[C@H](N)[C@H](O)[C@H](C)O1` [Doxorubicin], the Cmax in data set [1] (setting [5]) was found to be 30 ± 10 ng/mL.

Consider `CCC1(c2ccccc2)C(=O)NC(=O)NC1=O` [Phenobarbital], for which, in data set [1] (setting [7]), the Cmax stood at 2510 ± 680 ng/mL. In the case of `COCCOC(=O)C1=C(C)NC(C)=C(C(=O)OC(C)C)C1c1cccc([N+](=O)[O-])c1` (stereo not shown) [Nimodipine], the Cmax in data set [1] (setting [5]) worked out at 1510 ± 670 ng/mL. Regarding `CN(C)C(=N)N=C(N)N` [Metformin hydrochloride], the Cmax in data set [1] (setting [5]) is 820 ± 90 ng/mL.

As to `C[C@@H]1C[C@H]2[C@@H]3CCC4=CC(=O)C=C[C@]4(C)[C@@]3(F)[C@@H](O)C[C@]2(C)[C@@]1(O)C(=O)CO` [Dexamethasone], the Cmax is 130 ± 50 ng/mL in data set [1] (male, drug in preparation made by prescription and method of Example 1, read-out: Phospholipid Span sustained release preparation Cmax); 530 ± 120 ng/mL in data set [1] (male, original drug solution in water, ethanol or DMSO for injection, read-out: Original drug Cmax).

Turning to `NC(=O)N1c2ccccc2C=Cc2ccccc21` [Carbamazepine], the Cmax in data set [1] (setting [5]) was found to be 4460 ± 570 ng/mL. One may read the AUC(0-t) as the area under the concentration-time curve up to a stated or last time point. Read a low AUC(0-t) as less exposure. The term Tmax denotes the time from dosing to the highest level. The term half-life denotes the time in which the quantity being followed falls by half. A high value points to slow loss. With `CCCCCCOC(=O)NC(=N)c1ccc(NCc2nc3cc(C(=O)N(CCC(=O)OCC)c4ccccn4)ccc3n2C)cc1` [Solution group, dabigatran etexilate], the “AUC (0→∞)” value in data set [3] (SD rats, subcutaneous, 12.5 mg/kg, 2,4-dinitrophenol) worked out at 10.19 ± 1.11 mg·days/L. Moreover, in data set [4], the AUC(0-t) is 1970 ± 474 ng·h/mL, the Cmax came out at 244 ± 31.5 ng/mL, the Tmax is 3.18 ± 0.21 h and the half-life is 5.21 ± 0.83 h. Besides, the MRT last in data set [4] (read-out: MRT0-t) worked out at 7.86 ± 1.14 h.
